Assays:
Assay type in all cases: biochemical
LYNα kinase = target: T1, LYNα kinase (Homo sapiens, UniProt P07948); test: IC50 evaluation assay of Src family kinase inhibition: LYNα; conditions: 28° C.; average of two tests; read-out: IC50 (nM) inhibiting Src family kinase LYNα
T1 construct: purchased Carna 08-171
Experimental: (§1) 1. The compound was dissolved in 100% DMSO, diluted into solutions with appropriate concentration gradients with water according to experimental requirement, and added to a 96-well plate.
(§2) 2. c-Src kinase (Carna, Cat. No. 08-173, Lot. No. 05CBS-1367), LYNαkinase (Carna, Cat. No. 08-171, Lot. No. 06CBS-3296D), FYN kinase (Carna, Cat. No. 08-068, Lot. No. 05CBS-1032), LCK kinase (Carna, Cat. No. 08-170, Lot. No. 07CBS-2482), HCK kinase (BPS, Cat. No. 40440, Lot. No. 1001), FGR kinase (Carna, Cat. No. 08-166, Lot. No. 05CBS-2781), YES kinase (Carna, Cat. No. 08-175, Lot. No. 06CBS-3247) were diluted to the optimum concentration with the following buffer solution: 50 mM HEPES, pH 7.5, 0.0015% Brij-35, 10 mM MgCl2, 2 mM DTT. Transfer to the 96-well plate and incubate with the compound at 28° C. for a period of time.
(§3) 3. The buffer solution (100 mM HEPES, pH 7.5, 0.0015% Brij-35, 0.2% Coating Reagent and […]) was added to terminate the reaction.
(§4) 4. The conversion rate was read with Caliper Reader. The inhibition rate was calculated as the average of two tests.

FGFR2 kinase = target: T2, FGFR2 kinase (Homo sapiens, UniProt P21802); test: IC50 evaluation assay of FGFR2 kinase inhibition (Caliper); conditions: 28° C.; average of two tests; read-out: IC50 (nM) inhibiting FGFR 2 kinase
T2 construct: purchased Carna 08-134
Experimental: as §1
(§5) 2. FGFR1 kinase (Carna, Cat. No. 08-133, Lot. No. 09CBS-0989) and FGFR2 kinase (Carna, Cat. No. 08-134, Lot. No. 07CBS-2468), JAK3 kinase (Carna, Cat. No. 08-135, Lot. No. 06CBS-3177) were diluted to the optimum concentration with the following buffer solution: 50 mM HEPES, pH 7.5, 0.0015% Brij-35, 2 mM DTT. Transfer to the 96-well plate and incubate with the compound at 28° C. for a period of time.
as §3, §4

FLT3-ITD kinase = target: T3, FLT3-ITD kinase (Homo sapiens, UniProt P36888); test: IC50 evaluation assay of FLT3-ITD kinase inhibition (Caliper); conditions: 28° C.; average of two tests; read-out: IC50 (nM) inhibiting FLT3-ITD kinase
T3 sequence (P36888 1-993): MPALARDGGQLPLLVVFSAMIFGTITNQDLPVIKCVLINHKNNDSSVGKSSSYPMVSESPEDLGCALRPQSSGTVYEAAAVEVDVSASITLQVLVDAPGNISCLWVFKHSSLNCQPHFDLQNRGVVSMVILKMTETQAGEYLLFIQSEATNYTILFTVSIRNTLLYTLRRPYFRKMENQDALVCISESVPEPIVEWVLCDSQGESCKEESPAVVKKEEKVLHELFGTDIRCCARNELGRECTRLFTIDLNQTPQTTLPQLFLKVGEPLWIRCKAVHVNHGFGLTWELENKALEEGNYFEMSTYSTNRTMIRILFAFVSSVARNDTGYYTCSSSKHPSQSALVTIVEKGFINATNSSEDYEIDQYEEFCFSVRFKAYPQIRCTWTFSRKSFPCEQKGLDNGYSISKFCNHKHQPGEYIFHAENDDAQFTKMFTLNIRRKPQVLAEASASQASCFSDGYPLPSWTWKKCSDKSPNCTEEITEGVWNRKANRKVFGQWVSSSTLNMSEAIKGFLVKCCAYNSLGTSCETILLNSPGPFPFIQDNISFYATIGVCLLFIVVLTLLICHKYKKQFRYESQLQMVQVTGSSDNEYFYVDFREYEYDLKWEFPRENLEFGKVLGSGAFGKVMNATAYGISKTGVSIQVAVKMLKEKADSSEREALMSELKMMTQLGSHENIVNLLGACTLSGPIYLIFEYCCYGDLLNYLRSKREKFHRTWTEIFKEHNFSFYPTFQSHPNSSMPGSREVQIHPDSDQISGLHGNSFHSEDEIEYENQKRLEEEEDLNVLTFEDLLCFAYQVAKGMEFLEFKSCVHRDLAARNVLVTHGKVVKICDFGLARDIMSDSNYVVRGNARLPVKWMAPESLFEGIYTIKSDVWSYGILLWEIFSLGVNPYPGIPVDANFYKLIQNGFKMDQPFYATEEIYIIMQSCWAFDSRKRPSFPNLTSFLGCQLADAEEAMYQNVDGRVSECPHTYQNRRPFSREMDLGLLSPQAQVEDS
Experimental: as §1
2. FLT3 kinase (Carna, Cat. No. 08-154, Lot. No. 07CBS-2350), FLT3-ITD kinase (Invitrogen, Cat. No. PV6191, Lot. No. 1753453) and FLT3-D835Y kinase (Invitrogen, Cat. No. PR7450A, Lot. No. 1629729C) were diluted to the optimum concentration with the following buffer solution: 50 mM HEPES, pH 7.5, 0.0015% Brij-35, 10 mM MgCl2, 2 mM DTT. Transfer to the 96-well plate and incubate with the compound at 28° C. for a period of time.
as §3, §4

FGFR1 kinase = target: T4, FGFR1 kinase (Homo sapiens, UniProt P11362); test: IC50 evaluation assay of FGFR1 kinase inhibition (Caliper); conditions: 28° C.; average of two tests; read-out: IC50 (nM) inhibiting FGFR 1 kinase
T4 construct: purchased Carna 08-133
Experimental: as §1, §5, §3, §4

c-Src kinase = target: T5, c-Src kinase (Homo sapiens, UniProt P12931); test: IC50 evaluation assay of Src family kinase inhibition: c-Src; conditions: 28° C.; average of two tests; read-out: IC50 (nM) inhibiting Src family kinase c-Src
T5 construct: purchased Carna 08-173
Experimental: as §1, §2, §3, §4

FGFR 3 = target: T6, FGFR 3 (Homo sapiens, UniProt P22607); test: IC50 evaluation assay of FGFR3 kinase inhibition (Caliper); conditions: 28° C.; average of two tests; read-out: IC50 (nM) inhibiting FGFR 3 kinase
T6 construct: purchased Carna 08-135
T6 sequence (P22607 23-806): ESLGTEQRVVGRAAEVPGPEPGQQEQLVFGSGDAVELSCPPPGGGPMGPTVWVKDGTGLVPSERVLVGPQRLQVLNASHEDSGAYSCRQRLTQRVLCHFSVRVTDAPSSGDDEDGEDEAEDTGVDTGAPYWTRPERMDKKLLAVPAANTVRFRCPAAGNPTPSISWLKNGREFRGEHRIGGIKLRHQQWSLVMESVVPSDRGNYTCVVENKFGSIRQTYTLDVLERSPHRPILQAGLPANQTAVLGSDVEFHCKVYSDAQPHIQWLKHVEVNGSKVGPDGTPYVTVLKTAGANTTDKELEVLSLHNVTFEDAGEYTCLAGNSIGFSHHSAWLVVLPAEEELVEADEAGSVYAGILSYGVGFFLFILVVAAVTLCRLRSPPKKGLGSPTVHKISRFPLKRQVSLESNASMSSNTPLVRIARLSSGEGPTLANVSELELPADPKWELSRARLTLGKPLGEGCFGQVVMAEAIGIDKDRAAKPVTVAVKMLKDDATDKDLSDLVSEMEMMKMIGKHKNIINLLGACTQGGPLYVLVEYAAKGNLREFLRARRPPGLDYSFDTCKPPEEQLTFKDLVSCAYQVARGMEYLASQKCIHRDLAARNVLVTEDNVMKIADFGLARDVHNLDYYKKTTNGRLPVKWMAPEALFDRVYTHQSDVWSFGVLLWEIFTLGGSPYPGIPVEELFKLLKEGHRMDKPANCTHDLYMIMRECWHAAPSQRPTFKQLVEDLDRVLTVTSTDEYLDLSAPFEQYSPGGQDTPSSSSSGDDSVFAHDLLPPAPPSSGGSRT

T5 sequence (P12931 whole entry): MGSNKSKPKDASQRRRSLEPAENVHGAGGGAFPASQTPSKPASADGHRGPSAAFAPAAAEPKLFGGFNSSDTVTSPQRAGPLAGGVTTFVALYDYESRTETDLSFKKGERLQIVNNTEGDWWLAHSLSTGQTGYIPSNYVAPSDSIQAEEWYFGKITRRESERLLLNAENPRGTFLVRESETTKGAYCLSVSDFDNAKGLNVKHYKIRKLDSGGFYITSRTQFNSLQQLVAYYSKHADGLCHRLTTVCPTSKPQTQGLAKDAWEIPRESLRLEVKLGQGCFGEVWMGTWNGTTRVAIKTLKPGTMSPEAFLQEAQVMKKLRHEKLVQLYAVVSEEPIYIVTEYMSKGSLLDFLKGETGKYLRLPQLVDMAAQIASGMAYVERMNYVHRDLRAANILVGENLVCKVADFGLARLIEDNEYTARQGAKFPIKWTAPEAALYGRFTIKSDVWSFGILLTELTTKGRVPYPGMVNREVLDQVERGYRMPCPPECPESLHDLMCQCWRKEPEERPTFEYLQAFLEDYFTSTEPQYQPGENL
T1 sequence (P07948 whole entry): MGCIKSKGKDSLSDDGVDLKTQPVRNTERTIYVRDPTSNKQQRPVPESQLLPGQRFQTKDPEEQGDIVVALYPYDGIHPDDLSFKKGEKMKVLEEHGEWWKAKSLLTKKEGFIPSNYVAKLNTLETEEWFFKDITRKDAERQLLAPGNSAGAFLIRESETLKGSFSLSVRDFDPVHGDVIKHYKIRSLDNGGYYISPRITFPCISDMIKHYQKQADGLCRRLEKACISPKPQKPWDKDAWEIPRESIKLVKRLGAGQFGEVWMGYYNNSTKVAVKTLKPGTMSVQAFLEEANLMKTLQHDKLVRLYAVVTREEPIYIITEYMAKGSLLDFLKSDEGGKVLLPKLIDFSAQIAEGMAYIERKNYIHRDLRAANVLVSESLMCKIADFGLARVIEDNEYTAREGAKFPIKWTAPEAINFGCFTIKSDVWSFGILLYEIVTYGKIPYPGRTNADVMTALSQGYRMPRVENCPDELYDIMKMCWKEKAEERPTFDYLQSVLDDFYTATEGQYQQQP
T2 sequence (P21802 22-821): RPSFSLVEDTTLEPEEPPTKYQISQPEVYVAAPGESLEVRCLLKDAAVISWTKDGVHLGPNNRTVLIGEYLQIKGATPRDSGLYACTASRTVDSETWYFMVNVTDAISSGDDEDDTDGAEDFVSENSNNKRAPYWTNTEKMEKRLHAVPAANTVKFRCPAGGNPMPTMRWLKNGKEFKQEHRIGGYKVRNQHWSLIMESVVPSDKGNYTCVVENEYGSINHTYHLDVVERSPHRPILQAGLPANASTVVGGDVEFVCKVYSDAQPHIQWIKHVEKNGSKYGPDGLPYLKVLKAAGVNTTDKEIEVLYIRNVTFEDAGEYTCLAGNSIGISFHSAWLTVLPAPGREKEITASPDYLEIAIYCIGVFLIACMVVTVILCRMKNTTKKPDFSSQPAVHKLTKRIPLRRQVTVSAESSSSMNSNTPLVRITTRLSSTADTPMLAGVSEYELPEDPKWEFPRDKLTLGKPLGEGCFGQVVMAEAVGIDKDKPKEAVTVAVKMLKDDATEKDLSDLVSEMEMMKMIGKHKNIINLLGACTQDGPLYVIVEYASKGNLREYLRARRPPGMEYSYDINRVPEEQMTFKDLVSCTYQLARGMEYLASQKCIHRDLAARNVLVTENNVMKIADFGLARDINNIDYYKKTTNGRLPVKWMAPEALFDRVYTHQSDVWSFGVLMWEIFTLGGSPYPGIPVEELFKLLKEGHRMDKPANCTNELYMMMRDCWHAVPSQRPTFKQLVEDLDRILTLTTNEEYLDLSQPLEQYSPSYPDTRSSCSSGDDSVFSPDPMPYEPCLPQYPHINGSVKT
T4 sequence (P11362 22-822): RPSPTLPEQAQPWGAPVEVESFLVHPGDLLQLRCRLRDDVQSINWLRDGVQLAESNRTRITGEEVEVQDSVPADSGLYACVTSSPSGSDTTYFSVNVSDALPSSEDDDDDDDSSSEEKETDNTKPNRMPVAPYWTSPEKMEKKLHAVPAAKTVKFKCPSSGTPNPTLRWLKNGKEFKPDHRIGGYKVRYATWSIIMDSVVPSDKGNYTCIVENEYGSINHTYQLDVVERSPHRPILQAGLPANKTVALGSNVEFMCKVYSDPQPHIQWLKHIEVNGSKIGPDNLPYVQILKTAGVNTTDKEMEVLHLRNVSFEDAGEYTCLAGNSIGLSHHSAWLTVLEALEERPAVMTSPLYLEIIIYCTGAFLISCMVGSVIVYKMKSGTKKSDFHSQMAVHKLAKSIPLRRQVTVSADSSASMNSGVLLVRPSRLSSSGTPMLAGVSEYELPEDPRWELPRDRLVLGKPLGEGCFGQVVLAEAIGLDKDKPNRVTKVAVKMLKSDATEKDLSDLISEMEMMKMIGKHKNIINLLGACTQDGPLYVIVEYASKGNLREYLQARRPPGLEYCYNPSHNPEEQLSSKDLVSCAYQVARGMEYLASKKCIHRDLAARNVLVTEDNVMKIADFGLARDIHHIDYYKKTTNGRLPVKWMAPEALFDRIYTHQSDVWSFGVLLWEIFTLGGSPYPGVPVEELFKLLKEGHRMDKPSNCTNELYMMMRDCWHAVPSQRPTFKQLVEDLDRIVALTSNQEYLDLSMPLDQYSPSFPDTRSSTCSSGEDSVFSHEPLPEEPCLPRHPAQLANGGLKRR

Row | IC50 (LYNα kinase) | IC50 (FGFR2 kinase) | IC50 (FLT3-ITD kinase) | IC50 (FGFR1 kinase) | IC50 (c-Src kinase) | IC50 (FGFR 3) | Structure (SMILES)
1 | < 5 nM | 8.9 nM | 0.33 nM | 3.8 nM | 6.3 nM | 15 nM | COc1cc(F)ccc1-c1c(C)sc2cnc(Nc3cnn(C4CCN(CCO)CC4)c3)nc12 [Compound 34, 2-[4-(4-{[7-(4-fluoro-2-methoxyphenyl)-6-methylthieno[3,2-d]pyrimidinyl-2-yl]amino}-1H-pyrazol-1-yl)-piperidinyl-1-yl]-1-ethanol]
2 | 1.3 nM | 10 nM | 0.34 nM | 5.1 nM | 6 nM | 16 nM | COc1cc(F)ccc1-c1c(C)sc2cnc(Nc3cnn(C4CCNCC4)c3)nc12 [Compound 31, N-[7-(4-fluoro-2-methoxyphenyl)-6-methylthieno[3,2-d]pyrimidinyl-2-yl]-1-(piperidinyl-4-yl)-1H-pyrazol-4-amine]

Source: patent US10494378B2, “Fused ring pyrimidine compound, intermediate, and preparation method, composition and use thereof” (GUANGZHOU MAXINOVEL PHARMACEUTICALS CO., LTD., priority 2015, dated 2019)
